{"source": "paper PMC4830392", "about": "(Biochemical pharmacology, 2015)", "target": "OXE receptor (Felis catus, UniProt A0ABI7XKF2)", "sequence (A0ABI7XKF2 1-379)": "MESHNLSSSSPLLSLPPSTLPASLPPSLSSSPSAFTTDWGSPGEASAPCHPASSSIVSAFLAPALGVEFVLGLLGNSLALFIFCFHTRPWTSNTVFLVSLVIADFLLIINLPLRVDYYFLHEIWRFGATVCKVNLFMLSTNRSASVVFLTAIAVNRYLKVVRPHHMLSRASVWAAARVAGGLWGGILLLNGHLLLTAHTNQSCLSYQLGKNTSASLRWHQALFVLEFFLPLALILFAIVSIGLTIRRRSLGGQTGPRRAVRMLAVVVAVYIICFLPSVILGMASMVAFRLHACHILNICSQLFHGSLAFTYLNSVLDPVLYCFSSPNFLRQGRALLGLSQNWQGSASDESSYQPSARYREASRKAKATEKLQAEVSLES", "assay": "actin polymerization", "assay_type": "cell-based"}
{"smiles": "CCCCC/C=C\\C/C=C\\C/C=C\\C=C\\C(=O)CCCC(=O)O", "note": "[5-oxo-ETE, 5-oxo-6E,8Z,11Z,14Z-eicosatetraenoic acid]", "values": [{"measurement": "EC50", "result": 0.72, "unit": "nM"}]}
